Assay results as given in patent publication US8143241B2, “DNA damage repair inhibitors for treatment of cancer” (Kudos Pharmaceuticals Limited, priority 2003, dated 2012).

Legend:
Brca2 deficient ES cells = assay: Clonogenic assay, continuous exposure, Brca2 deficient ES cells; assay type: cell-based, mouse
Experimental: (§1) For measurement of sensitivity to chemical inhibitors, cell cultures e.g. ES cells or mouse embryonic fibroblasts, in exponential growth were trypsinised and seeded at various densities in 6-well plates onto confluent monolayer of Mitomycin C (MMC) inactivated mouse embryonic fibroblasts and, where appropriate, treated with inhibitors after 18 h. For continuous exposure, cells were re-fed every 4 days with fresh medium and inhibitor. For timed exposures, inhibitor was added for the specified period then cells were washed and re-fed with fresh medium. After 10-14 days, cells were washed with PBS, fixed in methanol and stained with crystal violet. Colonies containing greater than approximately 50 cells were counted. Experiments were performed at least three times in triplicate.

Brca1 deficient ES cells = assay: Clonogenic assay, continuous exposure, Brca1 deficient ES cells; assay type: cell-based, mouse
Experimental: as §1

[1] = test system: wild-type, Fanca−/−, Fancc−/− and Fanca−/−c−/− cells; assay: RAD51 focus formation in wild-type and FA fibroblasts; assay type: cell-based, mouse; settings: 48 hours exposure
Experimental: The percentage of cells with >5 foci per cell was quantified.
(§2) ES cells were cultured for 48 h in various concentrations of PARP inhibitor fixed in 4% paraformaldehyde in PBS and permeabilised with 0.2% Triton X100 in PBS. Cells were stained with a 1:100 dilution of rabbit anti-Rad51 ployclonal antibody (Ab 551922, BD-Pharmingen, Oxford, UK). After washing, the primary antibody was visualised with Alexa Fluor-555 goat anti-rabbit IgG (Alexa) and nuclei with TO-PRO-3 iodide (Molecular Probes). Rad51 foci and γH2Ax foci were visualised with and quantified using a Leica TCS-SP2 confocal microscope.

PARP-2 = PARP-2 (Homo sapiens, UniProt Q9UGN5); assay: Inhibition of poly(ADP-ribose) polymerase activity of PARP-2; assay type: biochemical
[2] = test system: wild-type, Fanca−/−, Fancc−/− and Fanca−/−c−/− cells; assay: γH2AX foci formation in wild-type and FA fibroblasts; assay type: cell-based, mouse; settings: 48 hours exposure
vault PARP = vault PARP (Homo sapiens, UniProt Q9UKK3); assay: Selectivity: vault PARP inhibition; assay type: biochemical; settings: at concentrations up to 1 μM
MCF7-3.23 cells = assay: Clonal survival, BRCA1 silenced MCF7-3.23 cells; assay type: cell-based, human
Text: (§3) Log concentration of inhibitor is plotted against log surviving fraction of cells.
(§4) The MCF7 scrambled and MCF7-3.23 cell lines were generated by stable transfection of MCF7 mammary adenocarcinoma cells with gene specific pSUPER constructs. Gene specific pSUPER constructs were generated expressing the following RNAi target sequences: (i) human BRCA1 (SEQ ID NO:3) 5r-[…]-3′ (ii) scrambled control 5′-(SEQ ID NO:4) […]-3′. A 1.8 kb fragment containing the human EF1a promoter and the blasticidin resistance gene (bsd) was subcloned from pEFBsd (Invitrogen) into the SapI site of the resultant pSUPER constructs, generated pSUPER-Bsd-BRCA1 and pSUPER-Bsd-scrambled. MCF7 cells were transfected with these plasmids using FuGene6 (Roche) according to the manufacturers instructions. After selection in blasticidin, resistant clones were assessed by real time PCR for silencing of BRCA1 mRNA (Egawa et al Oncology. 2001; 61(4): 293-8; Egawa et al Int J. Cancer. 2001 Jul. 20; 95(4):255-9). Clones with reduced levels of BRCA1 mRNA were cultured (under blasticidin selection) over 8 passages and the real-time assay repeated.

PARP-3 = PARP-3 (Homo sapiens, UniProt Q9Y6F1); assay: Selectivity: PARP-3 inhibition; assay type: biochemical; settings: at concentrations up to 1 μM
MCF7-scrambled cells = assay: Clonal survival, BRCA1 wild-type MCF7-scrambled cells; assay type: cell-based, human; settings: continuous exposure 12-14 days
Text: as §3, §4

tankyrase = settings: at concentrations up to 1 μM
[3] = test system: Brca1 and Brca2 deficient cells; assay: Timed-exposure clonogenic assay, Brca1 and Brca2 deficient cells; assay type: cell-based, mouse
Experimental: as §1
Cells were exposed to different concentrations of KU0058684 for defined periods of time. The inhibitor was then removed and the effects measured using a clonogenic assay. The inhibitory effects of KU0058684 on clonal growth were apparent after a relatively short exposure time, 4 h, and were essentially complete by 24 h exposure (FIGS. 5 and 6).

[4] = test system: Brca1 or Brca2 deficient cells; assay: Rad51 focus formation, Brca1 or Brca2 deficient ES cells; assay type: cell-based, mouse; settings: 48 hours
Experimental: as §2
(§5) Wild-type, and Brca1 and Brca2 defective ES cells were exposed to differing concentrations of KU0058684 for 48 hours. Cells were then fixed and stained for RAD51 foci as described by Tarsounas (Tarsounas M et al Oncogene. 2003 22(8): 1115-23).

wild-type ES cells = assay: Rad51 focus formation, wild-type ES cells; assay type: cell-based, mouse; settings: 48 hours
Experimental: as §2, §5

HeLa cells = assay: Cell viability, HeLa cells exposed to PARP inhibitor and caffeine; settings: 1 mM Caffeine plus KU0058684
Text: Error bars represent standard errors of the mean.
Caffiene was used to determine whether loss of ATM and ATR dependent DNA signalling pathways would induce sensitivity to PARP inhibition.

[5] = timed exposure, inhibitor then removed

Chain of PARP-2 (Q9UGN5 whole entry): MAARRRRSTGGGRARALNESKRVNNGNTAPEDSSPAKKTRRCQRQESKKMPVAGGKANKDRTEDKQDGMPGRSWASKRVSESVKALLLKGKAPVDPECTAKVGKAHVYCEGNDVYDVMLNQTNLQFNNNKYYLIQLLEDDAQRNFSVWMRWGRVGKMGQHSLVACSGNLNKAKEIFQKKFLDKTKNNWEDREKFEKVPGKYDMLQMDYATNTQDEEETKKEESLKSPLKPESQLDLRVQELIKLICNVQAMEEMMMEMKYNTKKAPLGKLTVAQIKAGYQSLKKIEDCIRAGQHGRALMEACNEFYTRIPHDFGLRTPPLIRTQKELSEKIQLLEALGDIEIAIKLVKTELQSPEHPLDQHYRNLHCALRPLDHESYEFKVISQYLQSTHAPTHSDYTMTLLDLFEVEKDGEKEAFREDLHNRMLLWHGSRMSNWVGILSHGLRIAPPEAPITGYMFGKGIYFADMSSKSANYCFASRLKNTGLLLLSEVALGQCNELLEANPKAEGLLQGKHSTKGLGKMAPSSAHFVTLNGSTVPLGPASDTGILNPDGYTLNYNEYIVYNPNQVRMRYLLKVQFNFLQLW
Chain of vault PARP (Q9UKK3 whole entry): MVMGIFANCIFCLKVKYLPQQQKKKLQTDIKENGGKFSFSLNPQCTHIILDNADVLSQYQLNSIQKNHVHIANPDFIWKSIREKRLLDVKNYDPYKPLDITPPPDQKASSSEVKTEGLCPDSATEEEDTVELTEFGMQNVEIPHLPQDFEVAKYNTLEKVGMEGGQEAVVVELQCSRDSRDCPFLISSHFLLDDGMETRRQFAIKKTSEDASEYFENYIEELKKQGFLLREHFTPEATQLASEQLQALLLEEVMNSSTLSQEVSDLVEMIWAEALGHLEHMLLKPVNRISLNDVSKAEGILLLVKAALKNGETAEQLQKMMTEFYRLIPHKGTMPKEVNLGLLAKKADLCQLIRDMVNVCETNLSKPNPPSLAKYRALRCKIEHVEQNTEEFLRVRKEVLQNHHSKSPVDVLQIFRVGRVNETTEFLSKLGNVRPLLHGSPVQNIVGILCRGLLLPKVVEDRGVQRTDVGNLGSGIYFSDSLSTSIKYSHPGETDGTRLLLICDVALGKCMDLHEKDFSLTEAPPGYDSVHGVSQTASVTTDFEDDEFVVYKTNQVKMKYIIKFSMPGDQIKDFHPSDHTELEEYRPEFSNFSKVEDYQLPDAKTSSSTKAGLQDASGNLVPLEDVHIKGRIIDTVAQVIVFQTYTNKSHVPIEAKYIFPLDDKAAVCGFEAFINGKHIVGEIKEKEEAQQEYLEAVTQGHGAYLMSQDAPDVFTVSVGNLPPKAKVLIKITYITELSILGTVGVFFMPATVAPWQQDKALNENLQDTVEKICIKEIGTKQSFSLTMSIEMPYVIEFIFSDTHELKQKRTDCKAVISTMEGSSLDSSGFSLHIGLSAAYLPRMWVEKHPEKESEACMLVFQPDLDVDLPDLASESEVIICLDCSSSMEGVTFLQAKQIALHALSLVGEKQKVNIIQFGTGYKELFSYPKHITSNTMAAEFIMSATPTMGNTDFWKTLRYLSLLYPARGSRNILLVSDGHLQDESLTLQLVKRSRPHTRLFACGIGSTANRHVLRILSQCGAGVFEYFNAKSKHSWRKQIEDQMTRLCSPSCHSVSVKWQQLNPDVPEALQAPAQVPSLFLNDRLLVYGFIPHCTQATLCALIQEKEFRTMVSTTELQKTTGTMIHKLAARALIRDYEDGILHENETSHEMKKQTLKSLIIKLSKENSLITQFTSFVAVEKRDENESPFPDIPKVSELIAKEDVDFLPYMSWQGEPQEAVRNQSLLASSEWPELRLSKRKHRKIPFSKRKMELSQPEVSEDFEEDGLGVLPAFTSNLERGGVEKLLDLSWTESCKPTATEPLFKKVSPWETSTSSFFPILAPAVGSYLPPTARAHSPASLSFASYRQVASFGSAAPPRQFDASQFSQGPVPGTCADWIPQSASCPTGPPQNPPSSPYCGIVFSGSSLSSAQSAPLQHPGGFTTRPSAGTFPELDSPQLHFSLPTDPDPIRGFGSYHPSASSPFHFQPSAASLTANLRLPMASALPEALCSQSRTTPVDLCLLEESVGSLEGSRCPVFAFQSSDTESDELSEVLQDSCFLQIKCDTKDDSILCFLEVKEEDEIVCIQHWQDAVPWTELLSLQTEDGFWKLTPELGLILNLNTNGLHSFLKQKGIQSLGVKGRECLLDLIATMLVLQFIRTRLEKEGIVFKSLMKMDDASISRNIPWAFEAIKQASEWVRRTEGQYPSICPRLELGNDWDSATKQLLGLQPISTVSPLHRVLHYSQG
Chain of PARP-3 (Q9Y6F1 whole entry, species assumed): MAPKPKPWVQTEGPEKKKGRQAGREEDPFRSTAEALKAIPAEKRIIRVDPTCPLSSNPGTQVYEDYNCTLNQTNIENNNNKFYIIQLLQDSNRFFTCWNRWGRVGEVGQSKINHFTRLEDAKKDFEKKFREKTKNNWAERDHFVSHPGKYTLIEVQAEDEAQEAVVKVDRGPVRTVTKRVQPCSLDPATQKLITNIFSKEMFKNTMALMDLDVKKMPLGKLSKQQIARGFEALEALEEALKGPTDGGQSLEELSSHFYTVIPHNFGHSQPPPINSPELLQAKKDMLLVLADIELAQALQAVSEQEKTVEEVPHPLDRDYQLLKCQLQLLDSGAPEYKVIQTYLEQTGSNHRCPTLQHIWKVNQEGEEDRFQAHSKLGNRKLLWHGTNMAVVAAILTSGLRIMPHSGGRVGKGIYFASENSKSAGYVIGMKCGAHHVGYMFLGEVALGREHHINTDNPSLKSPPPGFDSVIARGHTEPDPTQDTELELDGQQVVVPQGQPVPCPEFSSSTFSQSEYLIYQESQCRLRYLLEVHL

## O=C1CCC(=O)N1c1cc(Cc2n[nH]c(=O)c3ccccc23)ccc1F [KU0058684]
Brca2 deficient ES cells; Brca2 deficient ES cells, continuous exposure, read-out: SF50 (dosage at which 50% of cells survived)
  IC50: 15 nM
Brca2 deficient ES cells; Brca2 mutant cells vs wild-type
  enhanced sensitivity compared to wild-type: 133 fold
Brca2 deficient ES cells; clonogenic assay
  sensitivity of Brca2 deficient cells compared to otherwise isogenic cells: extremely sensitive
Brca1 deficient ES cells; Brca1 deficient ES cells, continuous exposure, read-out: SF50 (dosage at which 50% of cells survived)
  IC50: 35 nM
Brca1 deficient ES cells; Brca1 mutant cells vs wild-type
  enhanced sensitivity compared to wild-type: 57 fold
Brca1 deficient ES cells; clonogenic assay
  sensitivity of Brca1 deficient cells compared to otherwise isogenic cells: extremely sensitive
[1]
  RAD51 focus formation: Induction of RAD51 focus formation
PARP-2
  inhibition of poly(ADP-ribose) polymerase activity of PARP-1 and PARP-2: potent and specific inhibitors
[2]
  γH2AX foci: induction of γH2AX foci in all cells
Vault PARP
  inhibition of vault PARP: do not inhibit
MCF7-3.23 cells
  sensitivity of MCF7-3.23 cells compared with MCF7-scrambled cells: significantly more sensitive
MCF7-3.23 cells; MCF7-3.23, continuous exposure 12-14 days
  sensitivity (clonal survival): both cell lines were sensitive
PARP-3
  inhibition of PARP-3: do not inhibit
MCF7-scrambled cells
  sensitivity (clonal survival): both cell lines were sensitive
tankyrase
  inhibition of tankyrase: do not inhibit
[3]; short exposure followed by 10-14 days in the absence of inhibitor
  reversibility of the effects of PARP inhibition: irreversible
[3]; [5]
  exposure time after which inhibitory effects on clonal growth were apparent: 4 h
  exposure time by which inhibitory effects on clonal growth were essentially complete: ≤ 24 h
[4]
  Rad51 foci formation: no foci were induced
wild-type ES cells
  Rad51 foci formation: caused Rad51 foci formation in a dose-dependent fashion
HeLa cells
  sensitivity of HeLa cells to PARP inhibitor with caffeine: increased sensitivity
